Experimental data from paper PMC12648657, “Sc(III) Complexes of 1,4,7-Triazacyclononane-1,4,7-triacetic Acid and Its Monoamides” (Inorganic Chemistry, 2025).

Tests used:
[1] = Potentiometric determination of stability constants of Sc^III complexes; assay type: physicochemical; settings: for log K, [Sc(L)] + HL ↔ [M(HL)(L)]: I = 0.1 M NMe4Cl, coordination of second ligand molecule
Experimental: Potentiometry was carried out according to the previously published procedures; for the preparation of stock solutions and chemicals, equipment, electrode system calibration, titration procedures and data treatment, see refs – . Throughout the paper, pH means −log[H^+]. The protonation and stability constants were determined in 0.1 M (NMe4)Cl at 25.0 °C with pK w = 13.81. The Sc^III–H3nota system was studied by in-cell titrations from data obtained in the pH range 1.6–12 with ∼40 points per titration and four parallel titrations (c L = 0.004 M, c Sc = 0.004 or 0.002 M). The Sc^III–H2 L ^1 and Sc^III–H2 L ^2 systems were studied by a combination of the out-of-cell and in-cell methods. The out-of-cell method was performed at 1:1 ligand-to-metal ratio (c L = c Sc = 0.004 M, pH 1.5–5.0, 15–25 points per titration), and the in-cell method was performed at 1:1 and 2:1 ligand-to-metal ratios (c L = c Sc = 0.004, pH 5.0–12.0 or until precipitation of hydroxide, 15–20 points per titration; or c L = 0.004 M, c M = 0.002 M, pH 2.0–11.5, ∼40 points per titration). […] Stability constants for the Sc^III–OH^– system were taken from the literature. Protonation constants of ligands were adopted from literature–H3nota: 13.17, 5.74, 3.22, 1.96, 0.70; H2 L ^1 : 13.03, 4.24, 2.04, 0.67; H2 L ^2 : 12.93, 4.91, 2.48, 0.92.
High thermodynamic stability of complexes is an important property of metal complexes used in radio medicine. Thus, stability constants of the Sc^III complexes with the studied chelators were determined by potentiometry. Complexation of Sc^III by H3nota was fast, and thus, it was studied by the direct titration technique (in-cell method). Complexation of Sc^III by H2 L ^1 and H2 L ^2 was slower in the acidic region (pH < 3) and, thus, the batch titrations (out-of-cell method) had to be applied. In addition, the systems were studied in-cell in the neutral and weakly alkaline regions. The strongly alkaline region cannot be studied in the Sc^III–H2 L ^1 and Sc^III–H2 L ^2 systems due to decomposition of the complexes and precipitation of Sc^III hydroxide.

[2] = Solution stability of Sc^III complexes (alkaline solution, excess oxalate); assay type: physicochemical; settings: slowly decompose in strongly alkaline solutions or under excess oxalate, yielding insoluble Sc^III oxalate or hydroxide
Experimental: The NMR experiments were carried out on the Bruker Avance III 600 (with a cryoprobe), Bruker Avance III HD 400 or Varian VNMRS 300 MHz or Varian Unity Inova-400 spectrometers in 5 mm tubes. Chemical shifts are given in ppm, and the coupling constants are in Hz. All NMR spectra were collected at 25 °C. The shifts were referenced with external standards: 0.1% tBuOH in D2O (^1H δ 1.25 ppm, ^13C δ 30.30 ppm). External reference for ^45Sc was 0.1 M solution of Sc(ClO4)3 in 1 M aq. HClO4. The pH of samples was adjusted with diluted aq. HCl or aq. LiOH (∼0.5%), or maintained with 0.25 M imidazole/HCl buffer. Binary complexes were prepared by mixing solid ligands (typically at a final concentration of 25 mM) with standardized ScCl3 solution in Sc/L 1:1 or 1:2 molar ratios. Ternary complexes with oxalate anions were studied by mixing a lithium(I) oxalate aq. solution (25 mM) and variable amounts of stock solutions (200 mM) of Sc^III complexes with the studied ligands.

[3] = comparison table; literature value; cited from earlier work
[4] = comparison table; literature value; cited from earlier work; remark: listed apart in the source
[5] = comparison table; literature value; cited from earlier work; remark: listed apart in the source
[6] = comparison table; literature value; cited from earlier work; remark: listed apart in the source
[7] = comparison table; literature value; cited from earlier work; remark: listed apart in the source
[8] = Sc^III complexes of other ligands; literature values; cited from earlier work

Row | Compound | Overall stability constant logβ, Sc + L ⇄ [Sc(L)] ([1]; I = 0.1M (NMe4)Cl, 25 °C) | log K, Sc + L ↔ [Sc(L)] ([1]; I = 0.1M (NMe4)Cl, 25 °C) | log K, [Sc(L)(OH)] + H+ ↔ [M(L)(H2O)] ([1]; I = 0.1M (NMe4)Cl, 25 °C) | log K, [Sc(L)] + HL ↔ [M(HL)(L)] ([1]; 25 °C) | Stability constant log K ML, Cu^II [3] | Stability constant log K ML, Zn^II [4] | log K [M(L)] of Sc^III complex [8] | also measured
1 | CCNC(=O)CN1CCN(CC(=O)O)CCN(CC(=O)O)CC1 [H2 L ^1] | 16.64(1) | 16.64 | 7.36 | 2.86 | 21.37 | 18.89 |  | Stability of Sc^III complex in solution [2]: limited stability
2 | O=C(O)CN1CCN(CC(=O)O)CCN(CC(=O)O)CC1 [H3nota, 1,4,7-Triazacyclononane-1,4,7-triacetic Acid] | 19.50(1) | 19.50 | 7.77 | 3.11 | 23.33 | 22.32 |  | Overall stability constant logβ, Sc + 2 L + H+ ⇄ [Sc(HL)(L)] ([1]; I = 0.1M (NMe4)Cl, 25 °C): 35.78(6); Overall stability constant logβ, Sc + L + H2O ⇄ [Sc(L)(OH)] + H+ ([1]; I = 0.1M (NMe4)Cl, 25 °C): 11.73(2); Stability constant log K ML, Sc^III ([1]; comparison table): 19.50; Stability constant log K ML, Ga^III [5]: 29.60; Stability constant log K ML, Cd^II [6]: 17.87; Stability constant log K ML, Pb^II [7]: 18.18
3 | O=C(O)CN1CCN(Cc2cccc(C(=O)O)n2)CCN(CP(=O)(O)O)CC1 [H4mpatcn-P] |  |  |  |  |  |  | 21–26 | 
4 | O=C(O)CN1CCN(CC(=O)O)CCN(Cc2cccc(P(=O)(O)O)n2)CC1 [H4mpatcn-PyP] |  |  |  |  |  |  | 21–26 | 
5 | O=C([O-])CN(CCN(CC(=O)[O-])CC(=O)[O-])CCN(CC(=O)[O-])CC(=O)[O-].[Sc+3] [[Sc(dtpa)]^2–] |  |  |  |  |  |  | 27.43 | 
6 | O=C([O-])CN1CCN(CC(=O)[O-])CCN(Cc2cccc(C(=O)[O-])n2)CC1.[Sc+3] [[Sc(mpatcn)]] |  |  |  |  |  |  | 21–26 | 
